Literature values as cited in US10912302B2, “Glyphosate salt herbicidal composition” (Monsanto Technology LLC, priority 2004, dated 2021).

Conditions: 25° C.

O=C(O)CNCP(=O)(O)O [Glyphosate, glyphosate]
solubility in water: 1.16 % by weight
